Test results: paper doi:10.1101/2025.11.20.689572v1 (biorxiv, 2025)
Like-named read-outs stand apart in the source and are kept apart here.

Assays:
H1 = biological target: T1, H1 (Homo sapiens, UniProt P35367); test: competitive radioligand binding, HEK293 membranes
T1 construct: gene HRH1; full-length receptor; HEK293 cell membranes
Excerpt: competitive radioligand binding, HEK293 membranes on H1

5-HT1D = biological target: T2, 5-HT1D (Homo sapiens, UniProt P28221); test: TRUPATH BRET2 G protein dissociation, HEK293; type: cell-based; settings: HBSS, […] HEPES pH […] °C; agonist mode
T2 construct: gene HTR1D; full-length receptor; HEK293 with TRUPATH sensors (function)

5-HT1B = biological target: T3, 5-HT1B (Homo sapiens, UniProt P28222); test: competitive radioligand binding, HEK293 membranes
T3 construct: gene HTR1B; full-length receptor; HEK293 cell membranes
Excerpt: competitive radioligand binding, HEK293 membranes on 5-HT1B

CHRM1 [1] = biological target: T4, CHRM1 (Homo sapiens, UniProt P11229); test: cell-based; parameters: species or system HEK293; Fluo-4 Direct calcium mobilization on FLIPR-Tetra; settings: Assay=Calcium, agonist mode, % of control agonist
T4 sequence (P11229 1-460): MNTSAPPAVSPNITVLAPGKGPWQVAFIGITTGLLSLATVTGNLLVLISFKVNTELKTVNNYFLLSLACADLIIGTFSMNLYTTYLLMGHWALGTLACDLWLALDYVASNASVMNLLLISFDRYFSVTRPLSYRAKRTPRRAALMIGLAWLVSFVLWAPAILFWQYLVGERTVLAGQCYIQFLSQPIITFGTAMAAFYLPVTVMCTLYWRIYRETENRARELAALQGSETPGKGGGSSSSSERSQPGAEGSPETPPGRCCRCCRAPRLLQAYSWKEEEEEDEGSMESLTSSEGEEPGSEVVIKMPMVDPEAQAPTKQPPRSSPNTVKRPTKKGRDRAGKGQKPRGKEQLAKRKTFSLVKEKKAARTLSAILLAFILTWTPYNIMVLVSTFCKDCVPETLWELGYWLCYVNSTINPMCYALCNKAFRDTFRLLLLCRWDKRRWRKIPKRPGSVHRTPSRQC

CHRM3 [2] = biological target: T5, CHRM3 (Homo sapiens, UniProt P20309); test: cell-based; parameters: species or system HEK293; Fluo-4 Direct calcium mobilization on FLIPR-Tetra; settings: Assay=Calcium, agonist mode, % of control agonist
CHRM5 [3] = biological target: T6, CHRM5 (Homo sapiens, UniProt P08912); test: cell-based; parameters: species or system HEK293; Fluo-4 Direct calcium mobilization on FLIPR-Tetra; settings: Assay=Calcium, agonist mode, % of control agonist
T6 sequence (P08912 1-532): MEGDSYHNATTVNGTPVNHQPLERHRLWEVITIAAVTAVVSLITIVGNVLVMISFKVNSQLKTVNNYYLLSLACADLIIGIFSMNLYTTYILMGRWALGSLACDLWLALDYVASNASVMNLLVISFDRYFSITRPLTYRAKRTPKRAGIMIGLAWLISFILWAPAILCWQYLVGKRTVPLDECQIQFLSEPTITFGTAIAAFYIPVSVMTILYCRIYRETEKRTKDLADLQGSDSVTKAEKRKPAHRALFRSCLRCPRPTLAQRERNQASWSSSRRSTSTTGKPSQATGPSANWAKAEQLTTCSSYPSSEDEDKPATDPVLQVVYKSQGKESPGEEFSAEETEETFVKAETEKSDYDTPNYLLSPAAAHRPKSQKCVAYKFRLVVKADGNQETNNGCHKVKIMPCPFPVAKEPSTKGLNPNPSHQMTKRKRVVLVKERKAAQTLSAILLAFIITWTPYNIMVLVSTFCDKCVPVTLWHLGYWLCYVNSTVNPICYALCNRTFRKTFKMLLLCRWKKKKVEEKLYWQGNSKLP

CHRM1 [4] = biological target: T4, CHRM1; test: cell-based; parameters: species or system HEK293; BRET1 beta-arrestin2 recruitment, receptor-RLuc8 and mVenus-beta-arrestin2 with GRK2; settings: Assay=barr2, agonist mode, % of control agonist
Excerpt: (§1) BRET1 assays followed prior methods.

CHRM5 [5] = biological target: T6, CHRM5; test: cell-based; parameters: species or system HEK293; BRET1 beta-arrestin2 recruitment, receptor-RLuc8 and mVenus-beta-arrestin2 with GRK2; settings: Assay=barr2, agonist mode, % of control agonist
Excerpt: as §1

CHRM3 [6] = biological target: T5, CHRM3; test: cell-based; parameters: species or system HEK293; Fluo-4 Direct calcium mobilization on FLIPR-Tetra; settings: Assay=Calcium; agonist mode
HRH3 = HRH3 (Homo sapiens, UniProt Q9Y5N1); test: cell-based; parameters: species or system HEK293; TRUPATH BRET2 G-protein dissociation; antagonist mode against agonist EC80; settings: agonist mode
HTR1A = biological target: T7, HTR1A (Homo sapiens, UniProt P08908); test: cell-based; parameters: species or system HEK293; TRUPATH BRET2 G-protein dissociation; antagonist mode against agonist EC80; settings: agonist mode
T7 sequence (P08908 1-422): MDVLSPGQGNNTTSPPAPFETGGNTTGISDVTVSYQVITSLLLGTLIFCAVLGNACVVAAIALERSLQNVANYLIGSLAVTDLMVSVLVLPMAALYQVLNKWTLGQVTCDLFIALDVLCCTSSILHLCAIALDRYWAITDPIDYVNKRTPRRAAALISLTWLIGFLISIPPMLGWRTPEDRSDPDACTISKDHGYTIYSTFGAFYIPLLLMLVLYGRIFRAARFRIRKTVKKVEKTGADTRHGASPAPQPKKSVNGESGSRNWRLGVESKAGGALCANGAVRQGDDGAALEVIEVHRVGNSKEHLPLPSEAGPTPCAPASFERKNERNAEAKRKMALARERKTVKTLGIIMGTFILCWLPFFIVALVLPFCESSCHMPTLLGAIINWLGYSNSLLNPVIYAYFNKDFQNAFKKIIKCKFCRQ

[7] = HEK293, read-out: N-Desmethyl Xanomeline
[8] = N-Desmethyl Xanomeline, Assay=Gi2
[9] = N-Desmethyl Xanomeline, Assay=GoB

T5 sequence (P20309 whole entry): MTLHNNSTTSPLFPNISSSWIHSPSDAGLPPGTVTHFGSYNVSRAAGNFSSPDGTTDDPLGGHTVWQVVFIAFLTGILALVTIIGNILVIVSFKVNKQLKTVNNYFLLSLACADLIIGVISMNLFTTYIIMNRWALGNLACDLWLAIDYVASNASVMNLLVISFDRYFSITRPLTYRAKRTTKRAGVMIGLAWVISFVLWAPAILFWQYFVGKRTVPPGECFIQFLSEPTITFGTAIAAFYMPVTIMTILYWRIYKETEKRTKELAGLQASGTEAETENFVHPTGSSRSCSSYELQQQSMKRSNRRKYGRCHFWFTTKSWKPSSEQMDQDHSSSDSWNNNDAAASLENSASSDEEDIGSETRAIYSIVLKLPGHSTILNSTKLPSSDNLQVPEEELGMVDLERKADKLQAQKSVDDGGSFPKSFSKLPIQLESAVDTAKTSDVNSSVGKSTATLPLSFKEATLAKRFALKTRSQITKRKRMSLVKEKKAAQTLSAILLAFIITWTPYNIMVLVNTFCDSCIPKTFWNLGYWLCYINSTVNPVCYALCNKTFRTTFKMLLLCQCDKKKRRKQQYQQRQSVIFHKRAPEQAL
Sequence of HRH3 (Q9Y5N1 whole entry): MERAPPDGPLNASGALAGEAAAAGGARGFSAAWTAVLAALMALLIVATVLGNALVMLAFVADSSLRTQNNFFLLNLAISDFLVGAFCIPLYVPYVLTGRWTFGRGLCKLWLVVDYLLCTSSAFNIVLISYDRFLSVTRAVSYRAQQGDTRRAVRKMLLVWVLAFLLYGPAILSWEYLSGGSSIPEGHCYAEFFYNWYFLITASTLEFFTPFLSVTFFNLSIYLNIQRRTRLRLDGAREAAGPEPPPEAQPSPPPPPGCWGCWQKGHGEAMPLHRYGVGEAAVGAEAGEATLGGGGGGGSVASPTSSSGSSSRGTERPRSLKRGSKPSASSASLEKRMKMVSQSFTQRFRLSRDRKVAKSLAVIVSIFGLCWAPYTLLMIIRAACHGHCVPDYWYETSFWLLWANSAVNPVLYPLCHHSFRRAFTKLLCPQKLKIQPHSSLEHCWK
T2 sequence (P28221 whole entry): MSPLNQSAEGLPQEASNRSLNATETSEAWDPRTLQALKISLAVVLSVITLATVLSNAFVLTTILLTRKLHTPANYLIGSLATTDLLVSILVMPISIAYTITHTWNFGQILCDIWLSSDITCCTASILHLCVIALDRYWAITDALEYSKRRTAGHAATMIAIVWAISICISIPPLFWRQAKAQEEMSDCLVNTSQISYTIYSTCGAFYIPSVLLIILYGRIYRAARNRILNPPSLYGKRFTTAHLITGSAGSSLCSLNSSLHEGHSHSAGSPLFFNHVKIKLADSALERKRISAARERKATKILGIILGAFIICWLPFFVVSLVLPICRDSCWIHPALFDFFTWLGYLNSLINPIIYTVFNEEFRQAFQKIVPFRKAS
T1 sequence (P35367 whole entry): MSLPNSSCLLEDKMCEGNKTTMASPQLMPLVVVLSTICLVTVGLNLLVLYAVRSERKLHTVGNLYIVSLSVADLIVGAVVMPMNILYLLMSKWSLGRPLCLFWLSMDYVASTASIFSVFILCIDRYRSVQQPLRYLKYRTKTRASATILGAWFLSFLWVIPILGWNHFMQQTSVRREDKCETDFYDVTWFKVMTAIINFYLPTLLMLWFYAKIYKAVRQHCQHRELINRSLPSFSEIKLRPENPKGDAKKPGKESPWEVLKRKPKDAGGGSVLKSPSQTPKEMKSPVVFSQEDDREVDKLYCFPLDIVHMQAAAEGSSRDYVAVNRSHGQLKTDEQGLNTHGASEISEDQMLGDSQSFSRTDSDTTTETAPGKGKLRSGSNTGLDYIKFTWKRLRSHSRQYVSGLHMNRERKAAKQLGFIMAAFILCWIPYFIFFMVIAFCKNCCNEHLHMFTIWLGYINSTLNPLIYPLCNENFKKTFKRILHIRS
T3 sequence (P28222 whole entry): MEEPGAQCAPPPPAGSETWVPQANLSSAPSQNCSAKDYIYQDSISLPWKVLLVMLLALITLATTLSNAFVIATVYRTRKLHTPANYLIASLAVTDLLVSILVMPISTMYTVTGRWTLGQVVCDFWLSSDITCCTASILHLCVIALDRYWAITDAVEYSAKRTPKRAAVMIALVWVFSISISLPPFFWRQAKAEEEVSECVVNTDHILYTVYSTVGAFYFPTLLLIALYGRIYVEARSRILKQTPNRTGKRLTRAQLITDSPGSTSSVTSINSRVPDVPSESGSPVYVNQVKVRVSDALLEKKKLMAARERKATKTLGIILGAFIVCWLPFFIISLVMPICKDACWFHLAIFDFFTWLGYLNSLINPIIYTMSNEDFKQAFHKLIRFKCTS

For CCCCCCOc1nsnc1C1=CCCNC1 [N-desmethylxanomeline], the Ki (H1) was 724 nM, the EC50 (5-HT1D) was “full or partial agonists at 5-HT1D and 5-HT1A in a transducer-dependent fashion” and the Ki (5-HT1B) was 178 nM. It also gave an Emax (CHRM1 [1]; [7]) of 24.3%, an Emax (CHRM3 [2]; [7]) of 39% and an Emax (CHRM5 [3]; [7]) of 31.9%. It also gave an Emax (CHRM1 [4]; [7]) of 71.3%, an Emax (CHRM5 [5]; [7]) of 16.9% and an EC50 (CHRM3 [6]) of 64.1 nM. It also gave an EC50 (HRH3; N-Desmethyl Xanomeline, Assay=Gi1) of 10900 nM, an EC50 (HRH3; [8]) of 4530 nM and an EC50 (HRH3; N-Desmethyl Xanomeline, Assay=Gi3) of 18700 nM. It also gave an EC50 (HRH3; [9]) of 7020 nM, an EC50 (HTR1A; [8]) of 4340 nM and an EC50 (HTR1A; N-Desmethyl Xanomeline, Assay=GoA) of 1320 nM. For the same compound, the EC50 (HTR1A; [9]) was 2000 nM.

For CCCCCCOc1nsnc1C1=CCCN(C)C1 [Xanomeline], the Ki (H1) was 100 nM, the EC50 (5-HT1D) was “full or partial agonists at 5-HT1D and 5-HT1A in a transducer-dependent fashion” and the Ki (5-HT1B) was 724 nM. The Emax (CHRM1 [1]; HEK293, read-out: Xanomeline) was 25.6%, the Emax (CHRM3 [2]; HEK293, read-out: Xanomeline) was 41% and the Emax (CHRM5 [3]; HEK293, read-out: Xanomeline) was 35.4%. It also gave an Emax (CHRM1 [4]; HEK293, read-out: Xanomeline) of 73.2%, an Emax (CHRM5 [5]; HEK293, read-out: Xanomeline) of 27.2% and an EC50 (CHRM3 [6]) of 34 nM. For the same compound, the EC50 (HRH3; Xanomeline, Assay=Gi2) was 10300 nM, the EC50 (HRH3; Xanomeline, Assay=GoA) was 4130 nM and the EC50 (HRH3; Xanomeline, Assay=GoB) was 2640 nM. The EC50 (HTR1A; Xanomeline, Assay=Gi2) was 11700 nM, the EC50 (HTR1A; Xanomeline, Assay=GoA) was 2340 nM and the EC50 (HTR1A; Xanomeline, Assay=GoB) was 3690 nM.
